We go through 12 compounds from ChEMBL document CHEMBL1201862, “PubChem BioAssay data set” (2004).

Among the test systems are CAKI-1; CCRF-CEM; HL-60; HOP-62; K562; KM12; NCI-H460; OVCAR-3; OVCAR-5; RPMI-8226; SF-268; SK-MEL-28; SK-MEL-2; SK-OV-3; SN12C; TK-10; U-251; UO-31; HCT-116.
Holding throughout (experiment): NCI anticancer screen, dose series, 48 h

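Dose response: 5 concentrations. Exposure: 48 h. Format: 96-well plates. Endpoint: linear interpolation; highest concentration if not reached. Abbreviation: GI50, concentration required for 50% inhibition of growth.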 Active and inactive are the calls of the source. Cut-off read from the data, not from the text of the source: active = GI50 up to about 1.1 µM and inactive = higher.

Take `Cc1nc(-n2nc(-c3ccccc3)cc2-c2ccccc2)sc1C(=O)/C=C/c1ccc(Cl)cc1`: the GI50 is 17.5 µM (inactive) in the assay on CAKI-1; 17.3 µM (inactive) in the assay on CCRF-CEM; 14.5 µM (inactive) in the assay with HL-60; 13.3 µM (inactive) with HOP-62; > 10 µM (inactive) with K562; 11.7 µM (inactive) with KM12. Also, the GI50 in the assay with NCI-H460 is 25.2 µM (inactive); with OVCAR-3 it was 15.9 µM (inactive); in the assay with OVCAR-5, 34.8 µM (inactive); with RPMI-8226, 5.66 µM (inactive); in the assay on SF-268, 29 µM (inactive); in the assay on SK-MEL-28 it was 16.9 µM (inactive). Further, the GI50 in the assay with SK-MEL-2 is 19.6 µM (inactive); with SK-OV-3 it was 28.1 µM (inactive); with SN12C, 25.6 µM (inactive); with TK-10, 38.1 µM (inactive); with U-251, 15.8 µM (inactive); in the assay on UO-31, 9.06 µM (inactive).
Turning to `CCOC(=O)C(=O)C1C(=O)Nc2ccccc21` (centres undefined), the GI50 with CAKI-1, in the assay on CCRF-CEM, in the assay on HCT-116, with HL-60, with HOP-62 and with K562 was > 100 µM (inactive) each time. Besides, the GI50 in the assay with KM12, with NCI-H460, with OVCAR-3, with OVCAR-5, with RPMI-8226 and with SF-268 was > 100 µM (inactive) each time. The GI50 in the assay with SK-MEL-28, in the assay with SK-MEL-2, in the assay on SN12C, in the assay with TK-10, in the assay with U-251 and with UO-31 was > 100 µM (inactive) each time.
For the compound `COc1cc2c(c(OC)c1OC)-c1ccc(SC)c(=O)cc1C(CO)C2` (centres undefined), the GI50 with CAKI-1 is 0.634 µM (active); in the assay on CCRF-CEM, 0.0891 µM (active); in the assay on HCT-116 it was 0.12 µM (active); in the assay with HL-60, 0.0682 µM (active); in the assay with HOP-62, 0.233 µM (active); in the assay on K562 it was 0.0575 µM (active). For the same compound, the GI50 is 0.0813 µM (active) in the assay with KM12; 0.184 µM (active) with NCI-H460; 0.164 µM (active) in the assay on OVCAR-3; 0.431 µM (active) in the assay on OVCAR-5; < 0.01 µM (active) with RPMI-8226; 0.146 µM (active) in the assay with SF-268. Also, the GI50 is 0.0735 µM (active) in the assay on SK-MEL-28; 0.209 µM (active) in the assay on SK-MEL-2; 0.109 µM (active) with SK-OV-3; 0.335 µM (active) with SN12C; 0.246 µM (active) in the assay with U-251; 0.455 µM (active) in the assay with UO-31.
Turning to `Cn1ncc(=S)[nH]c1=S`, the GI50 in the assay on CCRF-CEM, in the assay on HCT-116, in the assay on HOP-62, with K562, with NCI-H460 and in the assay with OVCAR-3 was > 100 µM (inactive) throughout. For the same compound, the GI50 with OVCAR-5, in the assay with RPMI-8226, in the assay with SF-268, in the assay on SK-MEL-28, with SK-MEL-2 and in the assay with SK-OV-3 was > 100 µM (inactive) throughout. Also, the GI50 in the assay on SN12C, with TK-10, with U-251 and in the assay on UO-31 was > 100 µM (inactive) in each case.
As for `CN(C)C(=N)NC(N)=S`, the GI50 in the assay on CAKI-1, in the assay on HCT-116, in the assay with HL-60, with HOP-62, in the assay with K562 and in the assay with KM12 was > 100 µM (inactive) throughout. Besides, the GI50 with NCI-H460, in the assay with OVCAR-3, in the assay on OVCAR-5, in the assay on RPMI-8226, with SF-268 and with SK-MEL-28 was > 100 µM (inactive) in each case. In addition, the GI50 with SK-OV-3, in the assay on SN12C, in the assay on TK-10, in the assay with U-251 and with UO-31 was > 100 µM (inactive) each time.
For `COc1ccc(N2C(=O)c3c(c4[nH]c5ccccc5c4c4ccc(C(C)(C)C)cc34)C2=O)cc1`, the GI50 in the assay on CAKI-1 was 42 µM (inactive); in the assay on CCRF-CEM it was 21.3 µM (inactive); with HCT-116, 69.7 µM (inactive); with HOP-62 it was 42.8 µM (inactive); in the assay with K562 it was > 100 µM (inactive); in the assay on KM12 it was 64.9 µM (inactive). For the same compound, the GI50 in the assay with NCI-H460 was 40.4 µM (inactive); in the assay with OVCAR-3, 27.2 µM (inactive); with OVCAR-5, > 100 µM (inactive); with SF-268, 29.2 µM (inactive); in the assay with SK-MEL-28, 89.1 µM (inactive); in the assay with SK-MEL-2, 26.2 µM (inactive). The GI50 was 42.1 µM (inactive) in the assay on SK-OV-3; 64 µM (inactive) in the assay with SN12C; 51.4 µM (inactive) in the assay on TK-10; 22.8 µM (inactive) in the assay with U-251; 97.1 µM (inactive) in the assay on UO-31.
Turning to `Cc1ccc(S(=O)(=O)NNS(C)(=O)=O)cc1`, the GI50 in the assay with CAKI-1, in the assay on CCRF-CEM, in the assay on HCT-116, in the assay on HOP-62, with K562 and with KM12 was > 100 µM (inactive) each time. Further, the GI50 in the assay with NCI-H460, in the assay on OVCAR-3, in the assay with RPMI-8226, in the assay with SF-268, with SK-MEL-2 and in the assay on SN12C was > 100 µM (inactive) each time. For the same compound, the GI50 in the assay with TK-10, in the assay on U-251 and in the assay on UO-31 was > 100 µM (inactive) in each case.
Consider `CCOc1ccccc1NC(=O)CCc1n[nH]c(=S)o1`, for which the GI50 in the assay on CAKI-1, with CCRF-CEM, in the assay on HCT-116, in the assay on HL-60, in the assay with K562 and with KM12 was > 100 µM (inactive) throughout. For the same compound, the GI50 in the assay on OVCAR-3, in the assay on RPMI-8226, in the assay on SF-268, in the assay on SK-MEL-28, in the assay with SK-MEL-2 and in the assay with SK-OV-3 was > 100 µM (inactive) in each case. The GI50 in the assay with SN12C is > 100 µM (inactive); in the assay with TK-10, > 100 µM (inactive); with U-251, > 100 µM (inactive); in the assay on UO-31, 63.4 µM (inactive).
With `CCOC(=O)C1Oc2ccc([N+](=O)[O-])cc2C1(C)O` (centres undefined), the GI50 in the assay with CCRF-CEM, in the assay with HL-60, in the assay with HOP-62, with K562, in the assay on KM12 and with NCI-H460 was > 100 µM (inactive) throughout. The GI50 in the assay with OVCAR-3, in the assay on OVCAR-5, in the assay with RPMI-8226, with SF-268, in the assay on SK-MEL-28 and in the assay on SK-MEL-2 was > 100 µM (inactive) each time. For the same compound, the GI50 with SK-OV-3, in the assay with SN12C, with TK-10, in the assay on U-251 and with UO-31 was > 100 µM (inactive) in each case.
As for `C=CCOC1=C2CC[C@H](O)[C@@]2(C)CCC1=O`, the GI50 in the assay on CAKI-1, in the assay with CCRF-CEM, in the assay with HCT-116, in the assay on HL-60, in the assay with HOP-62 and in the assay with KM12 was > 100 µM (inactive) each time. The GI50 in the assay with NCI-H460, in the assay with OVCAR-3, with OVCAR-5, in the assay on RPMI-8226, in the assay with SF-268 and with SK-MEL-28 was > 100 µM (inactive) in each case. For the same compound, the GI50 in the assay on SK-OV-3, in the assay on SN12C, with TK-10, in the assay with U-251 and in the assay with UO-31 was > 100 µM (inactive) each time.
Turning to `Cc1noc(C)c1C1=CCCCc2ccccc21`, the GI50 with CCRF-CEM is 78.9 µM (inactive); in the assay with HCT-116, > 100 µM (inactive); with HL-60 it was 21.7 µM (inactive); in the assay on HOP-62, > 100 µM (inactive); in the assay with K562, 31.4 µM (inactive); in the assay with KM12, > 100 µM (inactive). Besides, the GI50 in the assay on NCI-H460 is > 100 µM (inactive); in the assay on OVCAR-3, 79.4 µM (inactive); in the assay with OVCAR-5, > 100 µM (inactive); in the assay on RPMI-8226, 25.9 µM (inactive); with SF-268, > 100 µM (inactive); in the assay on SK-MEL-28 it was > 100 µM (inactive). The GI50 in the assay on SK-MEL-2, in the assay with SK-OV-3, in the assay on SN12C, in the assay with U-251 and in the assay on UO-31 was > 100 µM (inactive) each time.
Take `CC1=Nn2c(nnc2-c2ccccc2Cl)NC(C)(C)C1`: the GI50 was > 100 µM (inactive) with CAKI-1; 34.2 µM (inactive) in the assay on CCRF-CEM; > 100 µM (inactive) in the assay on HCT-116; 50.9 µM (inactive) in the assay on HL-60; > 100 µM (inactive) in the assay with HOP-62; 42.9 µM (inactive) in the assay on K562. Moreover, the GI50 is > 100 µM (inactive) in the assay with KM12; > 100 µM (inactive) in the assay on NCI-H460; > 100 µM (inactive) in the assay on OVCAR-5; 26.1 µM (inactive) with RPMI-8226; > 100 µM (inactive) in the assay on SF-268; > 100 µM (inactive) in the assay on SK-MEL-28. Moreover, the GI50 was > 100 µM (inactive) with SK-MEL-2; > 100 µM (inactive) in the assay with SK-OV-3; > 100 µM (inactive) with SN12C; > 100 µM (inactive) in the assay with TK-10; 81.7 µM (inactive) with U-251; > 100 µM (inactive) in the assay with UO-31.
